{"source": "patent US9363998B2", "about": "“Pesticidal composition and its use” (SUMITOMO CHEMICAL COMPANY, LIMITED, priority 2010, dated 2016)", "test_system": "Rhizoctonia solani", "assay": "Soybean seed treatment test in soil contaminated by Rhizoctonia solani (disease control efficacy)", "assay_type": "in vivo, Rhizoctonia solani on soybean (variety: Natto shoryu)", "conditions": "carboxamide compound alone 0.2 g/100 kg of seeds, no thiodicarb, soybean cultivated 20 days in soil contaminated by Rhizoctonia solani, efficacy vs non-treated plot", "procedure": "A cyclohexanone solution (100 microL) containing prescribed amount (weight) of a test compound was applied on seeds of soybean (variety:Natto shoryu) (10 g) by using a rotary apparatus for seed treatment (Seed dresser, manufactured by Hans-Ulrich Hege GmbH).\nOne day after the application, plastic pot was filled with soil contaminated by Rhizoctonia solani, and the seeds treated with the test compounds were seeded in the soil and cultivated in a glass-greenhouse for 20 days (hereinafter referred to as “treated plot”).\nThereafter, the presence of disease caused by Rhizoctonia solani in the young plants which germinated from each seed was observed and disease severity was calculated according to the following calculation formula (1).\nOn the other hand, seeds of soybean which were not treated as above were cultivated in the same way as above (hereinafter referred to as “non-treated plot”) and the disease severity in “non-treated plot” was calculated in the same way as the above “treated plot”. On the basis of the above disease severity in “treated plot” and “non-treated plot”, efficacy in “treated plot” was evaluated according to the following calculation formula (2). […]"}
{"smiles": "CC1CC(C)(C)c2cccc(NC(=O)c3cn(C)nc3C(F)F)c21", "note": "(stereo not shown) [carboxamide compound (1)]", "values": [{"measurement": "efficacy (%)", "result": 47.4, "unit": "%"}]}
